A value given as a limit tells only on which side of the number the result lay.

Consider `Cc1ccc2[nH]c(=O)c(C#N)c(N3CCN(C(=O)c4cccs4)CC3)c2c1`, for which the melting point – broadly, the temperature, or range, at which the solid turns liquid – was 269 °C.

`COc1ccc(CN(C)CCCCc2ccc(NC(=O)c3cccc4c(=O)c5cccc(F)c5[nH]c34)cc2)cc1OC` registered a melting point of 131 °C.

As to `CCCCc1c(-c2cnccn2)ssc1=S`, the melting point worked out at 72 °C.

As for `CSc1ccc(N(C)S(=O)(=O)c2ccc(C)cc2)c(C#N)c1`, the melting point was 139 to 140 °C.

`Oc1ccc(CBr)cc1-n1nc2ccccc2n1`: the melting point was 169 to 171 °C.

Regarding `CC1(C)Oc2ccc([N+](=O)[O-])cc2C=C1CBr`, the melting point stood at 107 °C.

On to `CN(Cc1ccc(NC(=O)C2=Cc3cc(-c4ccc(C(C)(C)C)cc4)ccc3S(=O)(=O)CC2)cc1)C1CCOCC1`, for which the melting point fell in the range of 247 to 249 °C.

Consider `C[C@@H](n1cnc2cc(OCC(F)F)ccc2c1=O)[C@](O)(Cn1cncn1)c1ccc(F)cc1F`, for which the melting point fell in the range of 96 to 102 °C.

`CC(C)(C)NCC(=O)NCCn1ccc2ncnc(Nc3ccc(Oc4cccc5sncc45)c(Cl)c3)c21` returned a melting point of 178 to 180 °C.

`C=CCOc1cc(=O)n(-c2ccccc2)c2ncccc12` displayed a melting point of 171 to 174 °C.

Consider `Cc1ccn(-c2nccc3[nH]c(=O)ccc23)n1`, for which the melting point is greater than 300 °C.

In the case of `COc1cc(Nc2c(C#N)cnc3ccsc23)c(Cl)cc1Cl`, the melting point is 208 to 210 °C.

As to `CCCCOc1ccc(Cc2cnc(N)nc2N)cc1OC`, the melting point was 143 to 147 °C.

`O=C(O)CCCC1NCC2CCCN3CCCC1C23` (centres undefined): the melting point fell in the range of 185 to 187 °C.

Consider `COCCCOc1ccc(/C=C(\OC)C(=O)O)c(Oc2ncc(C(F)(F)F)cc2Cl)c1`, for which the melting point lay in the range of 140 to 141 °C.

Turning to `COc1ccc(CN2C(=O)C(C)(c3cc(CN4CCCCC4=O)ccc3Cl)c3cc(Cl)ccc32)c(OC)c1` (centres undefined), the melting point turned out to be 72 °C.

In the case of `COc1ccc2c(c1)c1c(n2C)CCC(Cc2nc[nH]c2C)C1=O` (centres undefined), the melting point was 227 to 229 °C.

`CCC(=C(c1ccccc1)c1ccc(C=Cc2noc(C)n2)cc1)c1ccccc1` returned a melting point of 158 to 159 °C.

In the case of `O=C(NO)c1ccc(-c2c3ccccc3nn2Cc2ccccc2)cc1`, the melting point was in the range of 201 to 203 °C.

Regarding `O=C(NC1CCCCC1)c1cc2ccncc2[nH]1`, the melting point lay within 298 to 301 °C.

As for `COc1ccc(N2CC(=O)c3ccccc3S2)cc1O`, the melting point lay in the range of 228 to 232 °C.

For the molecule `CCOC(=O)[C@@H]1OC(c2ccc3c(c2)OCO3)O[C@H]1C(=O)OCC`, the melting point fell in the range of 39 to 40 °C.

Turning to `Cc1cc(C)cc(-c2nc3ccc(O)cc3n2Cc2ccccc2CBr)c1`, the melting point is 213 °C.

Consider `Nc1ccc2c(c1)CCN(C(=O)C(F)(F)F)CC2`, for which the melting point lay within 160 to 162 °C.

In the case of `NNC(=O)C=Cc1cc2ccccc2o1`, the melting point was in the range of 173 to 174 °C.

As for `CC(=O)N[C@@H]1c2cc(C)ccc2OC(C)(C)[C@H]1O` (relative stereo), the melting point fell in the range of 188 to 190 °C.

The molecule `N#Cc1sc(Cl)nc1Cl` yielded a melting point of 34 to 35 °C.

For `CCCCCCCCCCCCCCOc1cccc(CO)c1`, the melting point lay in the range of 49 to 50 °C.

As for `O=C(NCCO)c1cccc(-c2cccc3c2CC(Cc2cccc(C(F)(F)F)c2)O3)c1` (centres undefined), the melting point was in the range of 120 to 121 °C.

With `CCC(CC)n1ncn(-c2ccc(N3CCN(c4ccc5c(=O)n([C@H](C)[C@](O)(Cn6cncn6)c6ccc(F)cc6F)cnc5c4)CC3)cc2)c1=O`, the melting point was in the range of 208 to 210 °C.

`COc1ccc(C2CNC(=O)N2C)cc1NC1CC2CCC1C2` (centres undefined): the melting point was in the range of 171 to 174 °C.

`Nc1nc2ccccc2c2c1nc(CCO)n2CCCNC(=O)c1cc2ccccc2cn1` came in with a melting point of 245 to 246 °C.

On to `FC(F)c1cc(-c2ccc(C(F)(F)F)cc2)nc2cncn12`, for which the melting point was found to be 173 °C.

`CCOC(=O)c1cc2cc(OC(F)(F)F)cc(N(C)S(=O)(=O)c3cccs3)c2[nH]1`: the melting point was 149 to 150 °C.

Turning to `CCc1ccc(Nc2ncc(Cc3ccc(OC)nc3)c3ncccc23)cc1Br`, the melting point lay in the range of 142 to 146 °C.

In turn, `COc1ccccc1-c1c2nn(-c3ccc(Cl)cc3)c(=O)c-2c[nH]c1C` gave a melting point of 267 to 278 °C.

In turn, `O=S(=O)(Nc1ncnc(Cl)c1-c1ccc(Cl)cc1)c1ccc(C(F)(F)F)cc1` came in with a melting point of 275 °C.

`Cc1cc(-c2ccc(O)cc2)cc2ccc(=O)[nH]c12` had a melting point of 270 to 274 °C.

Molecule `Nc1ncc2ncn(CCO)c2n1` registered a melting point of 173 to 175 °C.

For the molecule `O=C(NN=Cc1c(O)ccc2ccccc12)c1ccccc1O`, the melting point is 265 °C.

As for `O=C(Nc1nnn[nH]1)c1ccccc1O`, the melting point fell in the range of 264 to 266 °C.

For `COc1cc2c(c3c1OC(C)(C)C3)C(c1cccc(N3C(=O)c4ccccc4C3=O)c1)=NC(C)(C)C2`, the melting point was 162 to 168 °C.

In turn, `CC1CC(=O)NN=C1c1ccc(-n2ccc(C=O)c2)cc1` (centres undefined) showed a melting point of 191 to 192 °C.

Consider `CCOC(=O)C1=C(C)NC(C(OCC)OCC)=C(C(=O)OCC)C1c1cccc(O)c1` (centres undefined), for which the melting point fell in the range of 107 to 108 °C.

For `O=C(O)c1cc(Cl)c(O)c(O)c1Cl`, the melting point was 230 to 231 °C.

`CCN1CCc2ccc(Nc3ncc(Cl)c(NC4CCCCNC4=O)n3)cc2CC1` (centres undefined) showed a melting point of 232 to 234 °C.

As to `Fc1cccc2c1CNC2`, the melting point is 46.5 to 48.5 °C.

In turn, `Nc1ccc(SCC2CCC2)cc1[N+](=O)[O-]` displayed a melting point of 49 to 53 °C.

Molecule `CC(O)C(=O)c1ccc(C(=O)Nc2ccccc2N)c(N)c1` (centres undefined) came in with a melting point of 198 °C.

Regarding `CSc1nc(-c2ccc(C(F)(F)F)cc2)c2cc(C)sc2n1`, the melting point amounted to 113 °C.

As for `Cc1ccc(Nc2cc(C(=O)O)c(Nc3ccc(C)cc3)cc2C(=O)O)cc1`, the melting point worked out at 310 °C.

For the molecule `CC=CCn1c(Nc2cc(C)cc(C)c2)c(CC)c(=O)[nH]c1=O`, the melting point is 190 to 192 °C.

In the case of `O=c1[nH]c2ccccc2n(Cc2nnn[nH]2)c1=O`, the melting point is 320 °C.

Take `C=C(OCc1ccccc1)C(=O)OC`: the melting point was 44.5 to 45.5 °C.

For the molecule `NCCc1cccc(N2C(=O)N(c3ccc(Cl)cc3Cl)Cc3cnc(Nc4ccccc4)nc32)c1`, the melting point lay in the range of 131 to 135 °C.

The molecule `CC(C)c1nc2ccccc2n1CCCCCSc1nc(-c2ccc(N(C)C)cc2)c(-c2ccc(N(C)C)cc2)[nH]1` gave a melting point of 110 to 112 °C.

`Cc1c(-c2ccccc2)nc2n1C(C)(C)Cc1ccccc1C2OC1CCN(C)CC1` (centres undefined) displayed a melting point of 152 °C.

`CC(C)OC(=O)Nc1cccc2c1C(=O)C1(O)c3ccc(C(C)C)cc3OC21O` (centres undefined) displayed a melting point of 200 to 202 °C.

Molecule `Nc1cc(C2COCCO2)ccn1` (centres undefined) returned a melting point of 123 to 126 °C.

Consider `CCn1nc(-c2cnc(N)nc2-c2ccccc2)ccc1=O`, for which the melting point is 255 to 256 °C.

Molecule `O=C(c1ccccc1)c1cc([N+](=O)[O-])ccc1NCc1ccccc1` gave a melting point of 120 °C.

Turning to `O=C1c2c(-c3ccccc3)ccnc2OCCN1Cc1cc(C(F)(F)F)cc(C(F)(F)F)c1`, the melting point fell in the range of 200 to 201 °C.

In the case of `CC12CCC(C1)C1(C)Oc3ccc(C(O)c4ccc5cc(C(=O)O)ccc5c4)cc3C21C` (centres undefined), the melting point lay in the range of 146 to 148 °C.

In the case of `NS(=O)(=O)c1cc2c(s1)CCCC2O` (centres undefined), the melting point lay within 102 to 103 °C.

`O=C(O)C1CC(c2ccco2)=NN1C(=O)CCS` (centres undefined) showed a melting point of 121 to 123 °C.

In turn, `COC(=O)CCSC(SCCC(=O)OC)c1cccc(C=Cc2nc3cc(Cl)ccc3o2)c1` registered a melting point of 66 to 67 °C.

Molecule `COc1c(C)c(C)c(OC)c(C(CCCC(=O)O)c2ccccc2)c1C` (centres undefined) registered a melting point of 142 to 143 °C.

As for `CCc1ncnc2ccc(I)cc12`, the melting point fell in the range of 110 to 113 °C.

Turning to `CC(=O)Nc1ccc(-c2nn(C(C)=O)c3c2Cc2ccccc2-3)cc1`, the melting point fell in the range of 245 to 246 °C.

As for `COC(=O)c1ccc(OCCNC(=O)C2Cc3ccccc3N2S(=O)(=O)c2ccc(-c3ccc(F)cc3)cc2)cc1` (centres undefined), the melting point lay in the range of 70 to 72 °C.

As for `COc1nc(Br)cnc1NS(=O)(=O)c1cccc2c(N(C)C)cccc12`, the melting point was in the range of 166 to 167 °C.

On to `O=C(N[C@@H](CSc1ccccc1)[C@H]1CO1)OCc1ccccc1`, for which the melting point was found to be 61.7 °C.

Molecule `CCCCCCCCCCCCCCOc1ccc2c(C)cc(=O)oc2c1` yielded a melting point of 61 to 62 °C.

Molecule `Cc1ncsc1C(O)c1cccc(N(C)C)c1` (centres undefined) returned a melting point of 135 to 138 °C.

`CCOc1ccc(C=O)cc1CCl`: the melting point was in the range of 74.5 to 75.5 °C.

For the molecule `O=[N+]([O-])c1ccc2c(c1)CC(Cl)c1ccccc1S2` (centres undefined), the melting point was in the range of 74 to 77 °C.

Turning to `COc1cc(C(=O)N2CCN(C(=O)OC(C)(C)C)C(C(=O)O)C2)cc(OC)c1OC` (centres undefined), the melting point is 188 to 190 °C.

For the molecule `CC(C)(C)NC(=O)N(Cc1ccccc1)CC(O)C(Cc1ccccc1)NC(=O)C(CC(N)=O)NC(=O)NCc1ccccc1` (centres undefined), the melting point fell in the range of 156 to 158 °C.

In turn, `Cc1cc(NS(=O)(=O)c2cc(C3(O)CCC(=O)N3C)ccc2Cl)cc(C(C)(C)C)c1O` (centres undefined) had a melting point of 120 °C.

For `CCOC(=O)C(=CC=C1CCc2ccccc2C1=O)N(C)C`, the melting point turned out to be 123 °C.

Regarding `Nc1ccc2c(c1Br)C(=O)C1(CC1)O2`, the melting point lay in the range of 167 to 170 °C.

For the molecule `CCCCCCCCCc1ccc(C(=O)O)c(O)c1`, the melting point lay in the range of 94 to 97 °C.

In turn, `Nc1ncccc1CNC(=O)C1Cc2ccccc2N1S(=O)(=O)c1ccc(-c2cccc(C(F)(F)F)c2)cc1` (centres undefined) gave a melting point of 94 °C.

In turn, `CC[C@H](NC(=O)c1cc(F)ccc1NS(=O)(=O)c1cccc2cccnc12)c1ccccc1` returned a melting point of 163 °C.

Turning to `CN1CCc2c(ccc3[nH]c(=O)c(=O)[nH]c23)C1`, the melting point was in the range of 310 to 335 °C.

Molecule `CCN1CC2CCCC2C1CNC(=O)c1cc(Cl)c(N)cc1OC` (centres undefined) displayed a melting point of 128 to 129 °C.

Turning to `Nc1cccc(N2C(=O)c3ccc(N)cc3C2=O)c1`, the melting point lay within 228 to 231 °C.

Take `CC(C)c1ccc(-c2csc(-c3cccc(C(=O)O)c3)c2)cc1`: the melting point was 220 to 222 °C.

`NC(=O)c1ccc(N[C@H]2CC[C@H](N)CC2)cc1F` displayed a melting point of 166 to 167 °C.

The values are drawn from a melting point compilation (Tetko et al.; mined from patent text by program, amines drawn as free bases though some values may be those of a salt).
